In the OPERA property sets (Mansouri et al. 2018):

Going from `CCOC1(c2ccccc2)CN(C)CC(C)O1` (centres undefined) to `CC1CN(C)CC(O)(c2ccccc2)O1` (centres undefined), the logP falls from 2.23 to 1.79.

`CN1CCOC(O)(c2cccc(C(F)(F)F)c2)C1` (centres undefined) and `CN1CCOC(O)(c2ccccc2)C1` (centres undefined) are within 0.2 log units of each other in logP: 1.39 for the first, 1.54 for the second.

`CCCCOC1(c2ccccc2)CN(C)CCO1` (centres undefined) and `CCCOC1(c2ccccc2)CN(C)CCO1` (centres undefined) are within 0.2 log units of each other in logP: 2.23 for the first, 2.13 for the second.

First: CN1CCOC(O)C1c1ccccc1 (centres undefined)
Second: CC1N(C)CCOC1(O)c1ccccc1 (centres undefined)
The logP of the first is lower: 0.99 for the first, 1.92 for the second.

Compared with `C#CCOC1(c2ccccc2)CN(C)CCO1` (centres undefined), `C=CCOC1(c2ccccc2)CN(C)CCO1` (centres undefined) is higher in logP: 1.87 for the first, 2.09 for the second.

`CCOC1(c2ccccc2)OCCN(C)C1C` (centres undefined) and `CC(C)COC1(c2ccccc2)CN(C)CCO1` (centres undefined) are within 0.2 log units of each other in logP: 2.27 for the first, 2.17 for the second.

Going from `CC1C(c2ccccc2)OC(O)(c2ccccc2)CN1C` (centres undefined) to `CN1CCOC(O)(c2ccc(Br)cc2)C1` (centres undefined), the logP falls from 1.87 to 1.57.
